Experiment [1] concerns the target T1, POSH (Homo sapiens, UniProt Q7Z6J0).
T1 construct: GST-POSH lot NB81/p.118 3.6 mg/ml; fused on or other part: GST tag, used for detection with anti-GST XL665
T1 sequence (Q7Z6J0 1-269 limits assumed): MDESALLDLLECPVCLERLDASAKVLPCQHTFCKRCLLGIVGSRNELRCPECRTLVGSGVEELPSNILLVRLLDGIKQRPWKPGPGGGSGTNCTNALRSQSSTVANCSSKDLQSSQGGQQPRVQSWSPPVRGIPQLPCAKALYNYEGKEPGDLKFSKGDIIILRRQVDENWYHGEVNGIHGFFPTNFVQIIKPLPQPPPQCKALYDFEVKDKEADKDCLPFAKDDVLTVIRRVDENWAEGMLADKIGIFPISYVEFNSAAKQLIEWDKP
Put plainly: IC50 assay procedure: GST-POSH auto-ubiquitination, homogeneous time-resolved fluorescence (Ub-cryptate / anti-GST XL665). It counts as biochemical. To be noted: ubiquitin ligase activity of POSH; GST-POSH 33 nM, 30 min preincubation. The text has this:
In certain preferred embodiments, agents that inhibit (or promote) the ubiquitin ligase activity of a ubiquitin ligase, such as POSH, may be identified using a homogenous time resolved fluorescence assay. Such an assay may employ a GST fused to the RING subunit of a ubiquitin ligase (e.g. POSH). Two flurophore-conjugated detection reagents are also used: anti-GSTXL665 and europium cryptate labeled ubiqutin. The ubiqutination of the ubiquitin ligase by ubiqutin cryptate and binding of the anti-GST tagged XL665 brings the fluorophores into close proximity allowing FRET reaction to occur. Accordingly, FRET serves as a measurement of ubiquitination of the ubiquitin ligase. An enzymatic system may be set up to provide activated ubiquitin, e.g., by providing ubiquitin, an E1 and an E2. Compounds that will not allow the FRET reaction are considered to be inhibitors.
Step 3: establish IC 50 value measurements.
Experimental Protocols: 1. HTS Screening Assay Procedure • Microplates 10109D to 10114D compounds at 1 mM. • (Controls in column 1). • All compounds were perchase from ChemBridge corporation: ChemBridge corporation 16981 Via Tazon, Suite G San Diego, Calif. 92127 a. Microplates Labeling • Put labels to 6 PS U-bottom clear microplate. • Put labels to 18 black microplates (triplicats). b. Microplates Preparation • Put 100 μl GST-POSH at 33 nM in wells of the clear PS U-bottom microplates (exept wells A1-D1). • Negative control: place 100 μl dH2O in wells A1-D1. • (Positive control: place 100 μl GST-POSH at 33 nM in wells E1-H1). • Put 8 μl enzymes solution ×4 to black microplates (column 1 to 11). c. Incubation of E3 with Compounds • Transfer 5 μl of compounds (at 1 mM) to the microplates containing 100 μl GST-POSH. • Add 5 μl of DMSO to controls column 1. • Incubation 30 minutes at RT. d. Enzymatic (Ubiquitination) and Final Steps • Distribution of (triplicate) 3×23 μl incubated compounds into 3 black microplates containing enzymatic solution (on splitting apparatus). • Incubation 30 minutes at 37° C. • Addition of 8 μl EDTA 0.5 M. • Incubation 15 (at least) minutes at RT. • Addition of 30 μl GST XL 665 in reconstitution buffer. • Incubation 45 (at least) minutes at RT. • Reading fluorescence. • Record results in computer. • Put sealing foil back on original and diluted microplates and keep at −70° C. • Always the plates must be closed with lids during each step. 2. […] Microplates Labeling • Put labels to 4 clear PP clear microplate (18.2 μM, 9.1 uM, 1.82 uM, 910 nM,). • Put labels to 5 clear PS U-bottom clear microplate 4.44 μM, 909, 444, 91 and 44 nM) • Put labels to 15 black microplates (triplicates). f. Original Microplate Dilutions • Put DMSO 40 μl to (18.2 μM, 1.82 uM plates) and 20 ul to (9.1 uM, 910 nM plates. • Mix by pipetation the original microplate (3× up and down 45 μl). • Transfer 10 μl of compounds from the original microplate (at 91 μM) to the next microplate (=18.2 μM) on splitting apparatus. • Mix by pipetation the 18.2 uM microplate (3× up and down 45 μl). • Transfer 20 μl of compounds from the 18.2 uM microplate to the next microplate (=9.1 μM) on splitting apparatus. • Mix by pipetation the 9.1 uM microplate (3× up and down 45 μl). • Transfer 10 μl of compounds from the 9.1 uM microplate to the next microplate (=1.82 μM) on splitting apparatus. • Mix by pipetation the 1.82 uM microplate (3× up and down 45 μl). • Transfer 20 μl of compounds from the 1.82 uM microplate to the next microplate (=910 nM) on splitting apparatus • Mix by pipetation. g. Microplates Preparation • Put 123 μl GST-POSH at 33 nM in wells of the 5 clear PS U-bottom clear microplates. • Positive control: place 123 μl GST-POSH at 33 nM in well A12-h12 13 μl DMSO. • Negative control: place 123 μl dH2O in well B1 and 13 μl DMSO. • Put 8 μl enzymes solution ×4 to 15 black microplates. • Controls: put 8 μl enzymes solution ×4 to wells A1 to F1. h. […]

Experiment [2] has as its system HIV-1. Put plainly: HIV maturation (budding) in virus-like particle assay, HIV-1 p24 antigen ELISA. As to conditions: Human immunodeficiency virus 1, read-out: Budding (3 μM). In kind it is cell-based. The text has this: Compounds were further assessed for effects on maturation of HIV particles in a virus-like particle assay.
Background: In an ELISA, binding on a coated surface is turned into a signal by an enzyme label.

Each structure is given as a SMILES string.

Turning to `CC(C)(C)c1ccc(C2=N/C(=C\c3cccs3)C(=O)O2)cc1` [Compound 48], half-maximal inhibition in experiment [1] (IC50) required 1.3 µM. Also, in experiment [2], the activity at 3 µM is 58%. Consider `Cc1c(Br)c(=O)oc2c(Br)c(O)c(O)cc12` [Compound 83], for which half-maximal inhibition in experiment [1] (IC50) was put at 1 µM.

`CC(=C\c1ccccc1)/C=C1/NC(=S)NC1=O` [Compound 30] yielded a concentration for half-maximal inhibition (IC50) in experiment [1] of 2 µM. `O=C1/C(=C\c2cc(Cl)ccc2O)Sc2ccccc21` [Compound 44] yielded a half-inhibitory concentration (IC50) in experiment [1] of 0.65 µM.

`CCCOC(=O)c1ccc(/N=C/c2c(O)ccc3ccccc23)cc1` [Compound 69] showed an IC50 in experiment [1] of 0.7 µM. Moreover, the activity at 3 µM in experiment [2] is 41%.

By IC50 is commonly meant the concentration that inhibits the measured activity by half. A higher IC50 goes with lower potency.
